Results on 6 compounds are retold here after patent US11021445B2, “Carboxylic acid derivative as AT2R receptor antagonist” (SHANDONG DANHONG PHARMACEUTICAL CO., LTD., priority 2017, dated 2021).

Data set [1] is described as follows: Two-way permeability study in Caco-2 cells. The class given is in vitro ADME. Conditions: human; for efflux ratio at 120 min: pH 7.4; for Papp A→B at 120 min: pH 7.4, A-B direction; for Papp B→A at 120 min: pH 7.4, B-A direction. Here is the method: The two-way permeability of the to-be-tested compound in Caco-2 cells was measured, and whether the to-be-tested compound was transported by efflux or not was tested.
The compound is dissolved in dimethyl sulfoxide (DMSO) or other suitable solvent to prepare a stock solution of the appropriate concentration.
A suitable internal standard (IS) is dissolved in acetonitrile (ACN) or other organic solvent to be used as a stop solution. The specific information will be described in the research report.
Nadolol, metoprolol, digoxin, estrone 3-sulfate potassium (E3S) and GF120918 were used as a hypotonic control compound, a hypertonic control compound, a P-glycoprotein (P-gp) substrate, a breast cancer resistance protein (BCRP) substrate, and an efflux transporter inhibitor in this study. Stock solutions of these compounds are prepared with DMSO and stored at ≤−30° C., and used within 6 months.
In this study, HBSS (Hanks Balanced Salt Solution) containing 10 mM HEPES (2-[4-(2-hydroxyethyl)-1-piperazine]ethanesulfonic acid) was used as a transport buffer (pH 7.40*0.05).
Caco-2 cells were cultured in an MEM medium (Minimum Essential Media) under the conditions of 37±1° C., 5% CO2 and saturated humidity. The cells were then seeded in a Corning Transwell-96 well plate at a density of 1×10^5 cells/cm^2, and then the cells were placed in a carbon dioxide incubator for culture for 21-28 days for transport experiments. The medium was changed once every 5-6 days during culture.
Compounds were administered at concentrations of 2, 10 and 100 μM and were administered in both directions (A-B and B-A directions) with or without 10 μM GF120918, and there are three parallels for each administration concentration. Digoxin and E3S were tested at the concentration of 10 μM and 5 μM, respectively, and administered bidirectionally with or without 10 μM GF120918. The test concentrations of nadolol and metoprolol were 2 μM, and nadolol and metoprolol were administered unidirectionally (the A-B direction) without 10 μM GF120918. The three control compounds were also made in three parallels.
The administration solution, receiving solution and transport buffer were pre-incubated for 30 minutes at 37° C. The cell layer was rinsed twice with the transport buffer. The administration solution and the receiving solution were separately added to the corresponding cell plate wells (75 μL and 250 μL, respectively, for each of the top and base end wells). After sampling, the cell plates were incubated for 120 minutes in an incubator at 37±1° C., 5% CO2 and saturated humidity.
After all the compounds were subjected to vortex oscillation, the compounds after vortex oscillation were centrifuged at 3220×g, and 20° C. for 20 minutes, the appropriate volume of the supernatant was transferred to a sample analysis plate, and after the plate was sealed, the compounds were stored at 2-8° C. if the compounds were not immediately analyzed. The analysis was carried out by the method of LC/MS/MS, and the specific compound treatment method is shown in the research report.
The Lucifer Yellow Rejection Assay was used to test the integrity of Caco-2 cells. Six cell wells were randomly selected from each cell plate, and 100 μM Lucifer Yellow was added respectively. The Lucifer Yellow Rejection Assay and the transport experiment were performed simultaneously. After 120 minutes of incubation, a Lucifer Yellow sample was taken and the relative fluorescence unit (RFU) of the Lucifer Yellow in the sample was detected at a 425/528 nm (excitation/emission) spectrum.
The concentrations of the to-be-tested compound and the control compounds nadolol, metoprolol, digoxin and E3S in the samples were determined by liquid chromatography-tandem mass spectrometry (LC/MS/MS). The retention time of the analyte and internal standard, chromatogram acquisition and chromatogram integration were processed by using the software Analyst (AB Sciex, Framingham, Mass., USA).
On the technique in general: Caco-2 cells form a polarised layer with tight junctions and transporters.

The nature of data set [2]: Plasma protein binding rate (PPB) test, equilibrium dialysis. The class given is in vitro ADME. To be noted: human, 37°C. As to the method:
In vitro protein binding rates of 0.2 μM, 2 μM, 10 μM of test compounds with Sprague-Dawley rats, beagle dogs, human plasma were determined by equilibrium dialysis.
The experiment will use a 96-well equilibrium dialysis plate (HTDialysis device) to determine the plasma protein binding rate of the to-be-tested compound and the control compounds.
Prior to the start of the experiment, the dialysis membrane was pretreated according to the instructions for use and the dialysis unit was assembled as required.
Blank plasma was taken from CD-1 mice, Sprague-Dawley rats, Beagle dogs, cynomolgus monkeys and humans (an anticoagulant is EDTA-K2, which is a commercial product purchased, or is collected and prepared by the Drug Evaluation Department of Wuxi AppTech, and is stored in a refrigerator below −60° C. before use). A certain volume of the to-be-tested compound or the control compound working solution was added to prepare plasma samples of the compound to be tested at a concentration of 0.2, 2, 10 μM and plasma samples of the control compound at a concentration of 2 μM (n=1). The organic phase content was ≤1%. First, a certain volume of a plasma sample containing the to-be-tested compound and the control compound was taken out into the sample receiving plate as a sample at zero time (T0 sample, n=3); secondly, a plasma sample containing the to-be-tested compound and the control compound was added to one side of the dialysis membrane (plasma end, n=3), and a certain volume of dialysis buffer (buffer end, n=3) was added to the other side of the dialysis membrane; then the dialysis plate was placed in a humidified incubator with 5% CO2 for incubation for 4 hours at 37±1° C.
After the incubation, a certain volume of the dialyzed buffer sample (F sample) and the dialyzed plasma sample (T sample) were transferred to the sample receiving plate, and all samples were subjected to protein precipitation for LC/MS/MS analysis. And the dissociation rate of the compound (% Unbound) was calculated by the following formula: % Unbound=100*[F]/[T], % Bound=100−% Unbound. Wherein, % Unbound is the dissociation rate of the compound; % Bound is the binding rate of the compound; [F] is the concentration of the compound at the buffer end of the dialysis plate; [T] is the concentration of the compound at the plasma end of the dialysis plate; and the experimental results are shown in Table 7.

Broadly, the efflux ratio is a quotient of directional permeabilities that is used to spot active efflux. The Papp A→B is how fast a substance crosses the layer from the apical side. Low readings indicate poor permeation, high ones ready permeation. A word on the Papp B→A: it is how fast a substance crosses the layer from the basolateral side. Usually fraction unbound stands for free concentration divided by total concentration. Higher therefore signals weak binding.

For the compound `COc1ccc2c(c1OCc1ccccc1)C[C@@H](C(=O)O)N(C(=O)[C@@H](OC1CCCC1)c1ccccc1)C2` [Compound 37], in data set [1], the efflux ratio at 120 min came to 32.5, the Papp A→B at 120 min is 0.27 ×10⁻⁶ cm/s and the Papp B→A at 120 min amounted to 8.68 ×10⁻⁶ cm/s. Besides, the fraction unbound at 4 h in data set [2] was 0.004.
`COc1ccc2c(c1OCc1ccccc1)C[C@@H](C(=O)O)N(C(=O)[C@@H](OC1CC(F)(F)C1)c1ccccc1)C2` [Compound 51] gave a fraction unbound at 4 h in data set [2] of 0.007.
In the case of `COc1ccc2c(c1OCc1ccccc1)C[C@@H](C(=O)O)N(C(=O)[C@@H](OC1(C)CCCC1)c1ccccc1)C2` [Compound 57], in data set [1], the efflux ratio at 120 min amounted to 26.3, the Papp A→B at 120 min is 0.67 ×10⁻⁶ cm/s and the Papp B→A at 120 min is 17.7 ×10⁻⁶ cm/s. The same compound gave a fraction unbound at 4 h in data set [2] of 0.005.
In the case of `COc1ccc2c(c1OCc1ccccc1)C[C@@H](C(=O)O)N(C(=O)[C@@H](O[C@H]1CC[C@@H](O)CC1)c1ccccc1)C2` [Compound 63], the fraction unbound at 4 h in data set [2] is 0.016.
As to `O=C(O)[C@@H]1Cc2c(ccc(Cl)c2OCc2ccccc2)CN1C(=O)[C@@H](OC1CCCC1)c1ccccc1` [Compound 107], in data set [1], the efflux ratio at 120 min came to 13.1, the Papp A→B at 120 min came out at 0.48 ×10⁻⁶ cm/s and the Papp B→A at 120 min was determined as 6.24 ×10⁻⁶ cm/s.
Consider `COc1ccc2c(c1OCc1ccccc1)C[C@@H](C(=O)O)N(C(=O)C(c1ccccc1)c1ccccc1)C2` [EMA-401, reference compound], for which, in data set [1], the Papp A→B at 120 min turned out to be 0.11 ×10⁻⁶ cm/s and the Papp B→A at 120 min came out at 6.4 ×10⁻⁶ cm/s. This compound gave a fraction unbound at 4 h in data set [2] of 0.002.
